According to patent publication US10582707B2, “Antimicrobial antibacterial and spore germination inhibiting activity from an avocado extract enriched in bioactive compounds” (priority 2010, dated 2020):
≈ marks a conversion by molar mass, not a printed value.

Tests used:
[1] = test system: Clostridium sporogenes (ATCC 7955) heat shocked spores; experiment: microbe, parasite or virus in culture; format: cell-based; conditions: ATCC7955, isolated compounds at 0.5 mg/ml, read-out: Disc Inhibition Zone, Heat Shocked Spores
Protocol: (§1) For the antibacterial evaluations, adjusted solutions (5 μL) were transferred to sterile 6-mm diameter discs made from Whatman no. 1 filter paper, so that after solvent evaporation each disc contained 12.5 μg of solids from the enriched avocado seed extract. Experimental controls were treated under the same conditions that the extracts and included negative control discs that contained 5 μL of acetone, and for positive control discs 5 μL of a nisin solution (30 mg/ml in sterile water) were added to provide a residual concentration of 150 μg of nisin in each disc. All test discs were left for about 1-2 hr in a Biological Safety Cabinet to evaporate the solvent. Suspensions of about 0.1 optical density (at 600 nm) containing approximately 1 to 2×10^8 CFU/ml of Clostridium sporogenes (ATCC 7955) vegetative cells, isolated native spores or isolated heat shocked spores were prepared as described in official protocols of Health Canada (Food Directorate, 2010). Aliquots of the suspensions (100 μL) were transferred to Petri dishes containing 15 ml of solid medium (TPGY medium) and spread evenly with a sterile plastic rod. Four discs, each containing 12.5 μg of the test extract, and two more discs (one solvent blank and one nisin positive control) were placed each dish and incubated at 37° C. under anaerobic conditions. The diameter of the inhibition zones (cm) around the discs were measured after 36 hrs.

[2] = test system: Clostridium sporogenes (ATCC 7955) vegetative cells; experiment: microbe, parasite or virus in culture; format: cell-based; conditions: for zone of inhibition at 500 µg/mL: Clostridium sporogenes, ATCC7955, isolated compounds at 0.5 mg/ml, read-out: Disc Inhibition Zone, Vegetative Cells
Protocol: as §1

[3] = test system: heat shocked spores from C. sporogenes; experiment: MIC and MBC, heat shocked spores; format: cell-based; conditions: Clostridium sporogenes, Example 11 method (Tables 6 and 10)
Protocol: In order to further characterize the antibacterial activities of the fractions with the highest activity, it was important to determine their minimum inhibitory concentration (MIC), defined as the lowest concentration of an antimicrobial that will inhibit the visible growth of a microorganism after overnight incubation. […] But in the case of heat-shocked spores, the differences between nisin and the fractions with Kd of 0.4 were less pronounced, but still presented the desired inhibitory properties against spore germination.
In general terms, MIC is defined as the lowest concentration of an antimicrobial that will inhibit the visible growth of a microorganism after overnight incubation. While the MBC is the lowest concentration of the antimicrobial that will prevent the growth of a microorganism after subculture to fresh agar media free from the antibiotic or antimicrobial agent. The pool of active the fractions was tested at concentrations ranging from 0.005 to 2.5 mg/ml and nisin was used as control.

S. aureus = experiment: Disc inhibition zone, S. aureus vegetative cells; format: cell-based; conditions: isolated compounds at 0.5 mg/ml, Table 9; for zone of inhibition at 500 µg/mL: Staphylococcus aureus
Protocol: (§2) For the antibacterial evaluations, adjusted solutions (5 μL) were transferred to sterile 6-mm diameter discs made from Whatman no. 1 filter paper, so that after solvent evaporation each disc contained 12.5 μg of solids from the enriched avocado seed extract. […] All test discs were left for about 1-2 hr in a Biological Safety Cabinet to evaporate the solvent. Suspensions of about 0.1 optical density (at 600 nm) containing approximately 1 to 2×10^8 CFU/ml of Clostridium sporogenes (ATCC 7955) vegetative cells, isolated native spores or isolated heat shocked spores were prepared as described in official protocols of Health Canada (Food Directorate, 2010). Aliquots of the suspensions (100 μL) were transferred to Petri dishes containing 15 ml of solid medium (TPGY medium) and spread evenly with a sterile plastic rod. […] The diameter of the inhibition zones (cm) around the discs were measured after 36 hrs.
(§3) The fractions obtained from Normal phase FCPC, were then used to assess their antimicrobial activities against the growth of vegetative cells from S. aureus and B. subtilis.
(§4) In this example, the antimicrobial activities of the same isolated compounds described in Example 10 (Table 5) were tested against the growth of vegetative cells and heat shocked spores of C. sporogenes, and on vegetative cells of S. aureus, P. aeuroginosa, E. coli. and B. subtilis as previously described in Example 1, and at a concentration of 0.5 mg/ml.

B. subtilis = experiment: Disc inhibition zone, B. subtilis vegetative cells; format: cell-based; conditions: Bacillus subtilis, isolated compounds at 0.5 mg/ml, Table 9, read-out: Disc inhibition zone, B. Subtillis
Protocol: as §2, §3, §4

P. aeuroginosa = experiment: Disc inhibition zone, P. aeuroginosa vegetative cells; format: cell-based; conditions: isolated compounds at 0.5 mg/ml, Table 9
Protocol: as §1
(§5) In this example, the antimicrobial activities of the same isolated compounds described in Example 10 (Table 5) were tested against the growth of vegetative cells and heat shocked spores of C. sporogenes, and on vegetative cells of S. aureus, P. aeuroginosa, E. coli. and B. subtilis as previously described in Example 1, and at a concentration of 0.5 mg/ml. […] Since it has been reported that persin is able to inhibit fungi spore germination (Prusky et al., 1982), and in the present experiment it seems to have the lowest activity, it can be assumed that the other bioactive compound would have a higher activity against fungi spore.

E. coli = experiment: Disc inhibition zone, E. coli vegetative cells; format: cell-based; conditions: isolated compounds at 0.5 mg/ml, Table 9; for zone of inhibition at 500 µg/mL: Escherichia coli
Protocol: as §1, §5

[4] = test system: vegetative cells of Listeria monocytogenes; experiment: Disc inhibition zone, Listeria monocytogenes at refrigeration and optimum temperature; format: cell-based; conditions: 0.5 mg/ml
[5] = test system: Colletotrichum gloeosporioides; conditions: cited from earlier work
[6] = test system: silkworm larvae Bombyx mori L.; conditions: in vivo; cited from earlier work
Spodoptera exigua = conditions: in vivo; cited from earlier work
[7] = test system: lactating mammary gland and myocardial fibers of mice; conditions: cited from earlier work

| SMILES | zone of inhibition at 500 µg/mL [1] | zone of inhibition at 500 µg/mL [2] | MIC [3] | zone of inhibition at 500 µg/mL (S. aureus) | Disc inhibition zone, S. aureus (S. aureus) | zone of inhibition at 500 µg/mL (B. subtilis) | Disc inhibition zone, P. aeuroginosa (P. aeuroginosa) | zone of inhibition at 500 µg/mL (P. aeuroginosa) | zone of inhibition at 500 µg/mL (E. coli) | Disc inhibition zone, E. coli (E. coli) | zone of inhibition at 500 µg/mL ([4]; 37° C, 48 hours) | zone of inhibition at 500 µg/mL ([4]; 480 h, 4° C., 20 days) | bioactivity fold lower than that of persin [5] | antimicrobial activity reduced compared with persenone A ([2]; lack of C5-C6 double bond, 0.5 mg/ml) | concentration inhibiting fungi spore germination completely [5] | concentration in the artificial diet inhibiting larval feeding [6] | concentration of diet with inhibitory effects on feeding (Spodoptera exigua) | concentration of diet with inhibitory effects on larval growth (Spodoptera exigua) | dose rate inducing lactating mammary gland necrosis [7] | doses at which necrosis of myocardial fibers may occur [7] |
| --- | --- | --- | --- | --- | --- | --- | --- | --- | --- | --- | --- | --- | --- | --- | --- | --- | --- | --- | --- | --- |
| CC/C=C/CCCCCCCCC/C=C/C(=O)C[C@@H](O)COC(C)=O (single isomer, unassigned) [Compound 6] | 17 mm | 19 mm | 15.6 µg/mL (≈ 44.3 µM) | 0 mm | did not show inhibitory activity | 13 mm | did not show inhibitory activity | 0 mm | 0 mm | did not show inhibitory activity | 0 mm | 11 mm |  |  |  |  |  |  |  |  |
| CCCCC/C=C\C/C=C\CCCCC/C=C/C(=O)C[C@@H](O)COC(C)=O (single isomer, unassigned) [Compound 7] | 15 mm | 16 mm | 7.8 µg/mL (≈ 20.6 µM) | 0 mm | did not show inhibitory activity | 7 mm | did not show inhibitory activity | 0 mm | 0 mm | did not show inhibitory activity | 0 mm | 11 mm |  |  |  |  |  |  |  |  |
| C=CCCCCCCCCCCC[C@H](O)C[C@H](O)COC(C)=O [Compound 3, (2S, 4S)-1-acetoxy-2,4-dihydroxy-n-heptadeca-16-ene] | 10 mm | 11 mm |  |  |  |  |  |  |  |  | 0 mm | 0 mm | 3 fold |  |  |  |  |  |  |  |
| C=C/C=C/CCCCCCCCCCCC(=O)C[C@@H](O)COC(C)=O [Compound 5, (2R, 16E)-1-acetoxy-2-hydroxy-4-oxo-nonadeca-16,18-diene] | 11 mm | 10 mm |  |  |  |  |  |  |  |  | 0 mm | 0 mm |  |  |  |  |  |  |  |  |
| CCCCCCCCCCCCC/C=C/C(=O)C[C@@H](O)COC(C)=O [Compound 9A, (5E)-1-acetoxy-2-hydroxy-5-nonadecen-4-one] | 17 mm | 19 mm | 7.8 µg/mL (≈ 22 µM) | 0 mm | did not show inhibitory activity | 0 mm | did not show inhibitory activity | 0 mm | 0 mm | did not show inhibitory activity | 0 mm | 10 mm |  |  |  |  |  |  |  |  |
| CCCCC/C=C\C/C=C\CCCCCCCC(=O)C[C@@H](O)COC(C)=O [Compound 9B, (R, 12Z, 15Z)-1-acetoxy-2-hydroxy-4-oxo-heneicosa-12,15-diene] | 6 mm | 10 mm |  |  |  |  |  |  |  |  | 0 mm | 0 mm |  | 37.5% | 790 µg/mL | ≥ 200 µg/g | 400 µg/g | 200 µg/g | 60 to 100 mg/kg | above 100 mg/kg |
